Data: paper PMC10671074, “Tumor Regression upon Intratumoral and Subcutaneous Dosing of the STING Agonist ALG-031048 in Mouse Efficacy Models” (International Journal of Molecular Sciences, 2023)

Key:
[1] = system: MC38-hPD-L1 tumors; assay: MC38-hPD-L1 mouse colon carcinoma model; format: in vivo; settings: 0.5 mg/kg SC, QW (2×)
Excerpt: Female C57/BL6 mice (Shanghai Lingchang Biotechnology Co., Ltd., Shanghai, China) were 5 to 8 weeks old with a body weight > 16 g at the time of inoculation. Animals were housed and fed as described above.
After inoculation with tumor cells, the animals were checked daily for morbidity and mortality. During routine monitoring, the animals were checked for any effects of tumor growth or test articles on behavior such as mobility, food and water consumption, body weight gain/loss (body weights were measured twice per week after randomization), eye/hair matting, and any other abnormalities. Tumor volumes were measured and calculated as described above.
Each group consisted of 10 animals. The control group was administered 5 mg/kg isotype control antibody in a volume of 10 μL/g of IP, BIW for 2.5 weeks, 5 doses total. The atezolizumab-treated group was administered 5 mg/kg in a volume of 10 μL/g of IP, BIW for 2.5 weeks, 5 doses total. […] Dosing started when average tumor volumes were 70 mm^3.

[2] = system: subcutaneous CT26 tumors; assay: CT26 mouse colon carcinoma model
Description: Each mouse was inoculated subcutaneously in the right flank with 3 × 10^5 CT26 cells (in 0.1 mL PBS) for tumor development.
PBS was used as the vehicle control. […] Vehicles and test compounds were administered IT q3d × 3 in a volume of 0.05 mL. SC administration was performed between the shoulder blades at a dosing volume of 10 mL/kg. Tumors were measured twice a week in two dimensions using calipers, and volume was calculated using Formula (1):Tumor Volume (mm^3) = 0.5 (w^2 × l)(1)
Here, w = width and l = length, in mm, of a tumor.
Tumor weight was estimated with the assumption that 1 mg is equivalent to 1 mm^3 of tumor volume.
Animals were euthanized when (1) their tumor reached the endpoint volume of 2000 mm^3, (2) their body weight loss exceeded 30%, or (3) on the last day of the study, whichever came first. The TTE for analysis was calculated for each mouse by the following Equation (2):TTE = (log10 (endpoint volume) − b)/m(2)
TTE is expressed in days, endpoint volume is expressed in mm^3, b is the intercept, and m is the slope of the line obtained via linear regression of a log-transformed tumor growth data set. […] Animals were weighed on Days 1–5, then twice weekly for the duration of the study.

## CO[C@H]1[C@H]2OP(=O)(O)OC[C@@]34C[C@@H]3[C@@H](n3cnc5c(N)ncnc53)[C@H](O)[C@@H]4O[P@](=O)(S)OC[C@H]1O[C@H]2n1cnc2c(=O)[nH]c(N)nc21 [ALG-031048]
[1]; Day 11
  Tumor Reduction vs. Group 1 (vehicle): 40.3%
[1]; n = 10, vehicle 2268
  TV on Day 11 (Median): 1353 mm^3
[2]; CT26, 4 mg/kg SC, 3 × q3d
  Animals with complete response (TV < 10 mm^3) at end of study: one
[2]; Table 2 study, 100 μg IT, three doses
  Animals with tumors regressed and undetectable at end of study: 9 of 10
